Experimental findings from patent US12630545B2, “Crystal of compound X7 hydrochloride and its preparation method and application” (ORxes Therapeutics Co., Ltd., priority 2020, dated 2026) are described below.

Data set [1] deals with isolated rabbit vascular smooth muscle contraction induced by spasmodic agent AD. Description: Relaxation of isolated rabbit vascular smooth muscle contraction induced by spasmodic agent AD. The class given is cell-based. As to conditions: Oryctolagus cuniculus; adrenaline hydrochloride 10^−5 mol/L; X7 1×10^−9˜1×10^−6 mol/L; read-out: −logEC50 to relax the rabbit aorta contraction by AD (converted). As for the experimental part: After anesthetizing the rabbit, its chest was quickly cut open. The descending aorta, connective tissues, and surrounding adipose tissues were removed (if the serotonin receptor antagonistic test was carried out, a smooth stainless steel rod was used to remove the endothelial cells), and the aorta was cut into 3-5 mm vascular rings. Then, the steel wire hook was passed through the vascular ring, with one end fixed on the ventilation hook and the other end connected to the tension transducer and placed in a bath tube containing 20 ml of nutrient solution. The change in tension was recorded. The temperature was maintained in the bath tube at 37±0.5° C., and a mixed gas (95% O2+5% CO2) was introduced at the rate of 1-2 bubbles per second. […]
After the specimen tension became stable, a waveform was recorded, the spasmodic agent adrenaline hydrochloride (AD) (10^−5 mol/L) was added in the bath tube to induce contraction. […] When the maximum response of the next contraction was basically the same as that of the previous one, the prepared X7 solution (1×10^−9˜1×10^−6 mol/L) was added, and the waveform recorded. With the maximum relaxation response of X7 as 100%, the relaxation percentage of X7 at each concentration was calculated and the dose-effect curve plotted using the relaxation percentage of X7 as the vertical coordinate and the logarithm of each concentration as the horizontal coordinate. […]

For data set [2], the system named is α receptor in rabbit vascular smooth muscle. Description: Antagonism of norepinephrine cumulative contraction of rabbit aorta. The class given is cell-based. As for the experimental part: (§1) After anesthetizing the rabbit, its chest was quickly cut open. The descending aorta, connective tissues, and surrounding adipose tissues were removed (if the serotonin receptor antagonistic test was carried out, a smooth stainless steel rod was used to remove the endothelial cells), and the aorta was cut into 3-5 mm vascular rings. Then, the steel wire hook was passed through the vascular ring, with one end fixed on the ventilation hook and the other end connected to the tension transducer and placed in a bath tube containing 20 ml of nutrient solution. The change in tension was recorded. The temperature was maintained in the bath tube at 37±0.5° C., and a mixed gas (95% O2+5% CO2) was introduced at the rate of 1-2 bubbles per second. The initial load of the specimen was 1.5 g. The nutrient solution was changed every 20 min, balanced for 2 h, and the test was started after the baseline became stable.
After the specimen tension became stable, a waveform was recorded and norepinephrine added cumulatively in the bath tube (10^−8˜6×10^−5 mol/L) until reaching the maximum response, and then, the waveform was recorded again. […]
After the specimen tension became stable, a waveform was recorded and norepinephrine added cumulatively in the bath tube (10^−8˜3×10^−3 mol/L) until reaching the maximum response, and then, the waveform was recorded. […]

For data set [3], the system named is 5-hydroxytryptamine (5-HT) receptor in rabbit vascular smooth muscle. As to the kind of experiment: Antagonism of 5-HT cumulative contraction of rabbit aorta. The class given is cell-based. As for the experimental part: as §1
After the specimen tension became stable, the waveform was recorded and 5-HT added cumulatively in the bath tube (10^−7˜3×10^−4 mol/L) until reaching the maximum response, and the waveform was recorded again. […]
After the specimen tension became stable, a waveform was recorded and 5-HT cumulatively added in the bath tube (10^−7˜3×10^−4 mol/L) until reaching the maximum response, and the waveform was recorded again. […]

Data set [4] is described as follows: Equilibrium solubility in water. As to conditions: for Crystal form transformation: XRPD of solid after 24 hours equilibrium in water; for pH: supernatant after 24 hours equilibrium in water. The class given is physicochemical. The protocol: As a comparison, the equilibrium solubility was also tested under the same conditions for crystal form C sample (prepared in Example 11), crystal form D sample (prepared in Example 12), and crystal form F sample (prepared in Example 13). The suspension of each crystal form (˜10 mg/mL) was prepared in the test, magnetically stirred at room temperature for 24 hours (rotating speed˜800 rpm) and then centrifuged (10000 rpm, 5 min). The solubility and pH were determined for the supernatant after filtration ([…] PTFE filter membrane) and XRPD (transmission) for the solid.

Data set [5] is described as follows: Solid-state stability (HPLC purity, XRPD crystal form). The class given is physicochemical. As for the experimental part: For the solid samples separated under different conditions, the chemical stability was evaluated by determining purity using the HPLC method, and the physical stability was evaluated by determining the crystal form using the XRPD test.
Data set [6] in a line: Hygroscopicity by dynamic vapor sorption (DVS). It counts as physicochemical. The protocol: Dynamic vapor sorption (DVS) curves were created using DVS Intrinsic of SMS (Surface Measurement Systems). The relative humidity at 25° C. was corrected by the deliquescence points of LiCl, Mg (NO3)2, and KCl.
The mark [7] stands for this setting: equilibrium solubility in water, room temperature, 24 hours, hydrochloride.
Where [8] appears, read: room temperature, hydrochloride.
[9] abbreviates: 3 conditions: sealed 80° C. 1 day, open 25° C./60% RH and 40° C./75% RH 1 week, hydrochloride.

SMILES strings stand for the structures. Entries after “also recorded” stand apart in the source; their conditions may differ. Structures can show the parent of a compound that is named as a salt.

For the compound `c1ccc2c(c1)nnn2CCCCN1CCN(c2nsc3ccccc23)CC1` [X7, 3-(4-(4-(1H-benzotriazol-1-yl)butyl)piperazin-1-yl) benzoisothiazole hydrochloride], the EC50 in data set [1] is 8.51 nM. For the same compound, the “PA2 to resist rabbit aorta contraction by norepinephrine” value in data set [2] (X7 3×10^−8 mol/L) is given as 7.98±0.04. The “PA2 to resist rabbit aorta contraction by 5HT” value in data set [3] (X7 10^−7 mol/L, endothelium removed) is 8.86±0.14.

Regarding `c1ccc2c(c1)nnn2CCCCN1CCN(c2nsc3ccccc23)CC1` [Crystal form C, 3-(4-(4-(1H-benzotriazol-1-yl)butyl)piperazin-1-yl) benzoisothiazole hydrochloride], the Crystal form transformation entry in data set [4] (hydrochloride) was “transformed into crystal form B”. The same compound returned a Solubility in data set [4] (setting [7]) of 3300 µg/mL. Also, the pH in data set [4] (setting [8]) came to 4.9.

For the compound `c1ccc2c(c1)nnn2CCCCN1CCN(c2nsc3ccccc23)CC1` [Crystal form D, 3-(4-(4-(1H-benzotriazol-1-yl)butyl)piperazin-1-yl) benzoisothiazole hydrochloride], the Crystal form transformation result in data set [4] (listed as 0, hydrochloride) is listed as “transformed into crystal form B”. Besides, the Solubility in data set [4] (setting [7]) came to 3100 µg/mL. The pH in data set [4] (setting [8]) is listed as 4.9.

Consider `c1ccc2c(c1)nnn2CCCCN1CCN(c2nsc3ccccc23)CC1` [Crystal form A, 3-(4-(4-(1H-benzotriazol-1-yl)butyl)piperazin-1-yl) benzoisothiazole hydrochloride], for which the Crystal form transformation entry in data set [4] (hydrochloride) is listed as “No”. For the same compound, the Crystal form transformation result in data set [4] (listed as crystal form A, hydrochloride) is recorded as “remained unchanged”. Besides, the pH in data set [4] (setting [8]) stood at 4.6. This compound yielded a solubility at 24 h in data set [4] (water, thermodynamic from solid, equilibrium solubility in water, room temperature, 24 hours) of 3800 µg/mL. Also, in data set [5] (setting [9]), the “chemical purity change (chemical stability, HPLC)” value was “does not undergo crystal form transformation and chemical purity reduction; also recorded: no crystal form transformation or reduction of HPLC purity”; the “crystal form transformation (physical stability, XRPD)” value was “does not undergo crystal form transformation; also recorded: no crystal form transformation”. Besides, in data set [6] (25° C.), the “crystal form transformation after the DVS test” value is recorded as “no crystal form transformation”. The “water absorbed (DVS)” value in data set [6] (25° C./80% RH) is given as 0.08%. For the same compound, the hygroscopicity entry in data set [6] (DVS, 25° C./80% RH, China Pharmacopoeia 2015 guide) is reported as “no hygroscopicity”.

As to `COc1cc2nc(N3CCN(C(=O)C4COc5ccccc5O4)CC3)nc(N)c2cc1OC` (stereo not shown) [doxazosin, reference compound], the “PA2 to resist rabbit aorta contraction by NA” value in data set [2] (doxazosin 10^−7 mol/L) turned out to be 7.83±0.05.

Take `c1ccc2c(c1)nnn2CCCCN1CCN(c2nsc3ccccc23)CC1` [Crystal form F, 3-(4-(4-(1H-benzotriazol-1-yl)butyl)piperazin-1-yl) benzoisothiazole hydrochloride]: the Crystal form transformation result in data set [4] (hydrochloride) is given as “transformed into crystal form B”. Besides, the Solubility in data set [4] (setting [7]) was found to be 2900 µg/mL. Besides, in data set [4] (setting [8]), the pH is 4.7.

Turning to `COc1cccc(CCc2ccccc2OCC(CN(C)C)OC(=O)CCC(=O)O)c1` (stereo not shown) [sarpogrelate, reference compound], the “PA2 to resist rabbit aorta contraction by 5-HT” value in data set [3] (sarpogrelate 10^−6 mol/L) is 7.21±0.08.

For the compound `c1ccc2c(c1)nnn2CCCCN1CCN(c2nsc3ccccc23)CC1` [Crystal form B, 3-(4-(4-(1H-benzotriazol-1-yl)butyl)piperazin-1-yl) benzoisothiazole hydrochloride], the Crystal form transformation result in data set [4] (hydrochloride) is “No”; in data set [4] (listed as crystal form B, hydrochloride) it was “remained unchanged”. This compound also had a Solubility in data set [4] (setting [7]) of 3400 µg/mL. Besides, the pH in data set [4] (setting [8]) amounted to 4.9. Also, the “chemical purity change (chemical stability, HPLC)” value in data set [5] (setting [9]) is “does not decrease”. The HPLC purity change entry in data set [5] (open container, 25° C./60% RH, 1 week) is reported as “no change in crystal form or HPLC purity”. In addition, the “crystal form change (physical stability, XRPD)” value was “no change in crystal form” in data set [5] (open container, 25° C./60% RH, 1 week, hydrochloride) and “remains unchanged” in data set [5] (open container, 25° C./60% RH, 1 week, listed as crystal form B, hydrochloride). Moreover, in data set [6] (adsorption process, 95% RH, 25° C.), the “water absorption (DVS)” value was 12.5%. Besides, the “water absorbed (DVS)” value in data set [6] (desorption process, 30% RH, 25° C.) is 0.4%; in data set [6] (desorption process, 50% RH, 25° C.), 12.3%.

Broadly, the Solubility is the concentration that dissolves in the medium under given conditions. A low value points to little dissolved substance. As usually defined, the solubility is how much of the substance goes into solution per volume.
